Key:
[1] = target: Tyk2 (Homo sapiens (Human), UniProt P29597); experiment: LanthaScreen JAK biochemical assay (Tyk2); conditions: read-out: Tyk 2 (PKi); further: ATP at Km 10 µM
[2] = test system: IL-13 induced STAT6 phosphorylation in BEAS-2B human lung epithelial cells; experiment: AlphaScreen cellular potency assay, IL-13 induced STAT6 phosphorylation in BEAS-2B cells; type: cell-based; conditions: Homo sapiens; IL-13 induced STAT6 phosphorylation, BEAS-2B cells; read-out: BEAS-2B pIC50 (converted)
Procedure: The AlphaScreen JAM cellular potency assay was carried out by measuring interleukin-13 (IL-13, R&D Systems) induced STAT6 phosphorylation in BEAS-2B human lung epithelial cells (ATCC). The anti-STAT6 antibody (Cell Signaling Technologies) was conjugated to AlphaScreen acceptor beads (Perkin Elmer), while the anti-pSTAT6 (pTyr641) antibody (Cell Signaling Technologies) was biotinylated using EZ-Link Sulfo-NHS-Biotin (Thermo Scientific).
BEAS-2B cells were grown at 37° C. in a 5% CO2 humidified incubator in 50% DMEM/50% F-12 medium (Life Technologies) supplemented with 10% FBS (Hyclone), 100 U/mL penicillin, 100 μg/mL streptomycin (Life Technologies), and 2 mM GlutaMAX (Life Technologies). On day 1 of the assay, cells were seeded at a 7,500 cells/well density in white poly-D-lysine-coated 384-well plates (Corning) with 25 μL medium, and were allowed to adhere overnight in the incubator. On day 2 of the assay, the medium was removed and replaced with 12 μL of assay buffer (Hank's Balanced Salt Solution/HBSS, 25 mM HEPES, and 1 mg/ml bovine serum albumin/BSA) containing dose-responses of test compounds. Compounds were serially diluted in DMSO and then diluted another 1000-fold in media to bring the final DMSO concentration to 0.1%. Cells were incubated with test compounds at 37° C. for 1 h, and followed by the addition of 12 μl of pre-warmed IL-13 (80 ng/ml in assay buffer) for stimulation. After incubating at 37° C. for 30 min, the assay buffer (containing compound and IL-13) was removed, and 10 μl of cell lysis buffer (25 mM HEPES, 0.1% SDS, 1% NP-40, 5 mM MgCl2, 1.3 mM EDTA, 1 mM EGTA, and supplement with Complete Ultra mini protease inhibitors and PhosSTOP from Roche Diagnostics). The plates were shaken at ambient temperature for 30 min before the addition of detection reagents. A mixture of biotin-anti-pSTAT6 and anti-STAT6 conjugated acceptor beads was added first and incubated at ambient temperature for 2 h, followed by the addition of streptavidin conjugated donor beads (Perkin Elmer). After a minimum of 2 h incubation, the assay plates were read on the EnVision plate reader.
Results were expressed as the negative logarithm of the IC50 value, pIC50.

[3] = Pharmacokinetics in plasma and lung in mouse; type: in vivo; conditions: oral aspiration 0.2 mg/mL 50 uL, lung AUC (μg hr/g) / plasma AUC (μg hr/mL)
Procedure: Plasma and lung levels of test compounds and ratios thereof were determined in the following manner. BALB/c mice from Charles River Laboratories were used in the assay. Test compounds were individually formulated in 20% propylene glycol in pH 4 citrate buffer at a concentration of 0.2 mg/mL and 50 uL of the dosing solution was introduced into the trachea of a mouse by oral aspiration. At various time points (typically 0.167, 2, 6, 24 hr) post dosing, blood samples were removed via cardiac puncture and intact lungs were excised from the mice. Blood samples were centrifuged (Eppendorf centrifuge, 5804R) for 4 minutes at approximately 12,000 rpm at 4° C. to collect plasma. Lungs were padded dry, weighed, and homogenized at a dilution of 1:3 in sterile water. Plasma and lung levels of test compound were determined by LC-MS analysis against analytical standards constructed into a standard curve in the test matrix. A lung to plasma ratio was determined as the ratio of the lung AUC in μg hr/g to the plasma AUC in μg hr/mL, where AUC is conventionally defined as the area under the curve of test compound concentration vs. time.

[4] = test system: IL-13 induced pSTAT6 in lung tissue; experiment: Murine model of IL-13 induced pSTAT6 induction in lung tissue; type: in vivo; conditions: mouse lung; 0.5 mg/mL, 50 μL oral aspiration; IL-13 challenge 4 h after dosing, lungs collected 1 h later; read-out: pSTAT6 inhibition Assay 5
Procedure: Il-13 is an important cytokine underlying the pathophysiology of asthma (Kudlacz et al. Eur. J. Pharmacol, 2008, 582, 154-161). IL-13 binds to cell surface receptors activating members of the Janus family of kinases (JAK) which then phosphorylate STAT6 and subsequently activates further transcription pathways. In the described model, a dose of IL-13 was delivered locally into the lungs of mice to induce the phosphorylation of STAT6 (pSTAT6) which is then measured as the endpoint.
Adult balb/c mice from Harlan were used in the assay. On the day of study, animals were lightly anesthetized with isoflurane and administered either vehicle or test compound (0.5 mg/mL, 50 μL total volume over several breaths) via oral aspiration. Animals were placed in lateral recumbency post dose and monitored for full recovery from anesthesia before being returned to their home cage. Four hours later, animals were once again briefly anesthetized and challenged with either vehicle or IL-13 (0.03 μg total dose delivered, 50 μL total volume) via oral aspiration before being monitored for recovery from anesthesia and returned to their home cage. One hour after vehicle or IL-13 administration, lungs were collected for both pSTAT6 detection using an anti-pSTAT6 ELISA (rabbit mAb capture/coating antibody; mouse mAb detection/report antibody: anti-pSTAT6-pY641; secondary antibody: anti-mouse IgG-HRP) and analyzed for total drug concentration as described above in Assay 4.
Selected compounds of the invention were tested in the assay. Activity in the model is evidenced by a decrease in the level of pSTAT6 present in the lungs of treated animals at 5 hours compared to the vehicle treated, IL-13 challenged control animals. The difference between the control animals which were vehicle-treated, IL-13 challenged and the control animals which were vehicle-treated, vehicle challenged dictated the 0% and 100% inhibitory effect, respectively, in any given experiment.

[5] = target: JAK2 (Homo sapiens (Human), UniProt O60674)
[6] = target: JAK3 (Homo sapiens (Human), UniProt P52333); experiment: LanthaScreen JAK biochemical assay (JAK3); conditions: ATP at Km 1.6 μM; read-out: JAK 3 (pKi) (converted)
[7] = test system: Alternaria-induced BALF eosinophils; experiment: Murine model of Alternaria alternata-induced eosinophilic inflammation of the lung; type: in vivo; conditions: mouse; maximum statistically significant inhibition; 0.1-1.0 mg/mL, 50 μL oropharyngeal aspiration; BALF 48 h after alternaria
Procedure: Airway eosinophilia is a hallmark of human asthma. Alternaria alternata is a fungal aeroallergen that can exacerbate asthma in humans and induces eosinophilic inflammation in the lungs of mice (Havaux et al. Clin Exp Immunol. 2005, 139(2):179-88).
Seven- to nine-week old male C57 mice from Taconic were used in the study. On the day of study, animals were lightly anesthetized with isoflurane and administered either vehicle or test compound (0.1-1.0 mg/mL, 50 μL total volume over several breaths) via oropharyngeal aspiration. Animals were placed in lateral recumbency post dose and monitored for full recovery from anesthesia before being returned to their home cage. One hour later, animals were once again briefly anesthetized and challenged with either vehicle or alternaria extract (200 ug total extract delivered, 50 μL total volume) via oropharyngeal aspiration before being monitored for recovery from anesthesia and returned to their home cage. Forty-eight hours after alternaria administration, bronchoalveolar lavage fluid (BALF) was collected and eosinophils were counted in the BALF using the Advia 120 Hematology System (Siemens).
Selected compounds of the invention were tested in this alternaria assay. Activity in the model is evidenced by a decrease in the level of eosinophils present in the BALF of treated animals at forty-eight hours compared to the vehicle treated, alternaria challenged control animals. Data are expressed as percent inhibition of the vehicle treated, alternaria challenged BALF eosinophils response. To calculate percent inhibition, the number of BALF eosinophils for each condition is converted to percent of the average vehicle treated, alternaria challenged BALF eosinophils and subtracted from one-hundred percent.

Chain of JAK2 (O60674 whole entry): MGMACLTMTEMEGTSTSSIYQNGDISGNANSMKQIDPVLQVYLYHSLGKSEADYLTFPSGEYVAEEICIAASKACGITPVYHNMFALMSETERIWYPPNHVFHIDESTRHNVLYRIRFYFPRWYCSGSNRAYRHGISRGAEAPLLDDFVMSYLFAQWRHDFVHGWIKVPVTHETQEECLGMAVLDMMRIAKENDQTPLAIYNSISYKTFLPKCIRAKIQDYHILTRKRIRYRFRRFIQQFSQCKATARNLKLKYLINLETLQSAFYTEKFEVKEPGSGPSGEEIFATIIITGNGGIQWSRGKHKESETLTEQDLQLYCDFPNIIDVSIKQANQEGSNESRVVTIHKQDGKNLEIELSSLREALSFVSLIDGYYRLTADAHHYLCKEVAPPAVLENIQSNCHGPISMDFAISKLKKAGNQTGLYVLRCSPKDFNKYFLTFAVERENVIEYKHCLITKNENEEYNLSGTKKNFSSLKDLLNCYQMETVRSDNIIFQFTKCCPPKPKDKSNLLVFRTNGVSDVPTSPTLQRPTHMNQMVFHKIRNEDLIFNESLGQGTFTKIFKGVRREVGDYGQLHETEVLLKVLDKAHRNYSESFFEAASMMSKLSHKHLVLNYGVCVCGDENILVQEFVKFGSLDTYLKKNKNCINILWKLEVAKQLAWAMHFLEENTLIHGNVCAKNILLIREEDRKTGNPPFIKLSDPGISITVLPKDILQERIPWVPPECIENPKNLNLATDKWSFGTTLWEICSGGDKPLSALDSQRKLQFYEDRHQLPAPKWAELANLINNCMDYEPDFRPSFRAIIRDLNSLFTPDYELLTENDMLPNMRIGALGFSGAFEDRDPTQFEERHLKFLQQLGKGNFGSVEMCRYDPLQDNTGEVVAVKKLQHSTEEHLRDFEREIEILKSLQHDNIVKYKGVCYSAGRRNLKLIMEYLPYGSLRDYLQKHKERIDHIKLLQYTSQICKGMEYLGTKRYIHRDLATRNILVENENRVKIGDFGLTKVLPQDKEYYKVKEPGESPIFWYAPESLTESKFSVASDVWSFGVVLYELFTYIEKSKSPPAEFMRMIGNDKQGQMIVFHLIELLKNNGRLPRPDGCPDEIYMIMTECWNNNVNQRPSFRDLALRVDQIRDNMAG
Chain of JAK3 (P52333 whole entry): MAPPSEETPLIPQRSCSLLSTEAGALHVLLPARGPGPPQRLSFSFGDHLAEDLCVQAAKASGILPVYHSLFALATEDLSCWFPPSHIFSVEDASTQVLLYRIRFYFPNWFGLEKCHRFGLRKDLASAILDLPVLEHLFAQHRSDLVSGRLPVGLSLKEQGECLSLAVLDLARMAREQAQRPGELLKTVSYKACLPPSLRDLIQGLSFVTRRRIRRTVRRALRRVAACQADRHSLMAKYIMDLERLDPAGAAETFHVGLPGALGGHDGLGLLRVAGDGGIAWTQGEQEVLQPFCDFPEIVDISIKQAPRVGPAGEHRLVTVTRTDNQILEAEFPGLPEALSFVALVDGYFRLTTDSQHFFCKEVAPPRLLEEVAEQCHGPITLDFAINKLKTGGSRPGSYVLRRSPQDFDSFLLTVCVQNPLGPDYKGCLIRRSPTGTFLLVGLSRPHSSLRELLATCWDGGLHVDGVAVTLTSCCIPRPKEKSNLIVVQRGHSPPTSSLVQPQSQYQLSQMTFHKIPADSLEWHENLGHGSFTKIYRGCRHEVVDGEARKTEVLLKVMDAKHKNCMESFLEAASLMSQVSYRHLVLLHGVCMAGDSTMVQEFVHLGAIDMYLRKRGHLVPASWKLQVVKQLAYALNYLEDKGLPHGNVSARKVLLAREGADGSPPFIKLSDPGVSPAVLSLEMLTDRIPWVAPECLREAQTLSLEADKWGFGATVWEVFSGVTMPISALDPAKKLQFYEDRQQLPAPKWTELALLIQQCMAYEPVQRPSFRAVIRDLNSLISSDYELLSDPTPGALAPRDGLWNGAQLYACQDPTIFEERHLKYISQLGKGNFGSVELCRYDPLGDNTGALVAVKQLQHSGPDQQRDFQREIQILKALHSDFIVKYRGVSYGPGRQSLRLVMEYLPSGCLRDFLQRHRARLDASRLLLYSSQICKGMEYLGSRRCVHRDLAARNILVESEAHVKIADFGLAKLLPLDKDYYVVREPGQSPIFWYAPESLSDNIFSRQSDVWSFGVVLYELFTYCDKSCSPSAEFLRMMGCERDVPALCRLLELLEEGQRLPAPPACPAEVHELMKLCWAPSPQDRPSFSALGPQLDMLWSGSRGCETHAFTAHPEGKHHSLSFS
Chain of Tyk2 (P29597 whole entry): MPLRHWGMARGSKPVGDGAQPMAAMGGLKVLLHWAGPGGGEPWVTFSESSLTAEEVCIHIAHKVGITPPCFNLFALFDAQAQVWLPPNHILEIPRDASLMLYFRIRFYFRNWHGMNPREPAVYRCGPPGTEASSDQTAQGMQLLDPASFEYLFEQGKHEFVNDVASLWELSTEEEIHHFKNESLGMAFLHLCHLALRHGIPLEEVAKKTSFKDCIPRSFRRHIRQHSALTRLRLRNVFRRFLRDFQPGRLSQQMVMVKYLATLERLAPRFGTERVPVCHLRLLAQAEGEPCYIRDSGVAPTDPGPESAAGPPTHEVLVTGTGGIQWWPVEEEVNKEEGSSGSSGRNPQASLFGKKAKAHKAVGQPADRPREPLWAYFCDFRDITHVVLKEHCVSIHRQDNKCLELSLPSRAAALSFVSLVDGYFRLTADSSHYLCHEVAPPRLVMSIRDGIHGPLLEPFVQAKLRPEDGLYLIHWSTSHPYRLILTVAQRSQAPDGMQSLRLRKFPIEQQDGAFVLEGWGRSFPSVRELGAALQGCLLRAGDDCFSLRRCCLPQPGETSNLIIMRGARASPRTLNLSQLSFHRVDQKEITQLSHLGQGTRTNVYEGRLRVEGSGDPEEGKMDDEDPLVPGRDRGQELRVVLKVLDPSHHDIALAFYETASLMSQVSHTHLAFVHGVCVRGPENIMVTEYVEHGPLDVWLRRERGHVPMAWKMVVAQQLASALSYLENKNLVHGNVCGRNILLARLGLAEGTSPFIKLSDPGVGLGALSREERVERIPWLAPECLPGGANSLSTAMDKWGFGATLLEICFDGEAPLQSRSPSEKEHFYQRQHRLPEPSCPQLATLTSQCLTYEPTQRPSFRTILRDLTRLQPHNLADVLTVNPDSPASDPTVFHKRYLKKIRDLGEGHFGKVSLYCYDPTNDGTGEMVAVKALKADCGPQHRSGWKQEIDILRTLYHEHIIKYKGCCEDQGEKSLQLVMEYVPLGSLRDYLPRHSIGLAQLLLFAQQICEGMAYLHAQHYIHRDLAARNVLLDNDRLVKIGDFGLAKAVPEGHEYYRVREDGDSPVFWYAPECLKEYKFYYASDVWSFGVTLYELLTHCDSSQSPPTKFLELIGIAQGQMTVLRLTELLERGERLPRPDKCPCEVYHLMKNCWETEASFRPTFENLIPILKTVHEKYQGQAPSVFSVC

| Compound | Ki [1] | IC50 [2] | Lung to Plasma ratio Assay 4 [3] | inhibition in vivo at 500 µg/mL [4] | Ki [5] | Ki [6] | Percent Inhibition of Alternaria-induced BALF Eosinophils [7] |
| --- | --- | --- | --- | --- | --- | --- | --- |
| CCc1cc(O)c(F)cc1-c1ccc2c(-c3nc4c([nH]3)CCN(CCN(C)CC)C4)n[nH]c2c1 [Example 9, 5-ethyl-4-(3-(5-(2-(ethyl(methyl)amino)ethyl)-4,5,6,7-tetrahydro-1H-imidazo[4,5-c]pyridin-2-yl)-1H-indazol-6-yl)-2-fluorophenol] | 0.316 to 1 nM | < 10 nM | B (B denotes a ratio between 50 and 100) | 50 to 65% | < 0.1 nM |  |  |
| CCc1cc(O)c(F)cc1-c1ccc2c(-c3nc4c([nH]3)CCN(CC(F)CN(C)C)C4)n[nH]c2c1 (stereo not shown) [Example 12, 4-(3-(5-(3-(dimethylamino)-2-fluoropropyl)-4,5,6,7-tetrahydro-1H-imidazo[4,5-c]pyridin-2-yl)-1H-indazol-6-yl)-5-ethyl-2-fluorophenol] | 0.316 to 1 nM | < 10 nM | C (C denotes a ratio between 10 and 50) | 33 to 50% | < 0.1 nM | 0.1 to 1 nM |  |
| CCc1cc(O)c(F)cc1-c1ccc2c(-c3nc4c([nH]3)CCN(C3CCN(C)CC3)C4)n[nH]c2c1 [Example 6, 5-Ethyl-2-fluoro-4-(3-(5-(1-methylpiperidin-4-yl)-4,5,6,7-tetrahydro-1H-imidazo[4,5-c]pyridin-2-yl)-1H-indazol-6-yl)phenol] | 0.1 to 1 nM | < 10 nM | B (B denotes a ratio between 50 and 100) | 50 to 65% | < 0.1 nM | 0.1 to 1 nM | 88% |
| CCc1cc(O)c(F)cc1-c1ccc2c(-c3nc4c([nH]3)CCN(C3CN(C5CC5)C3)C4)n[nH]c2c1 [Example 5, 4-(3-(5-(1-cyclopropylazetidin-3-yl)-4,5,6,7-tetrahydro-1H-imidazo[4,5-c]pyridin-2-yl)-1H-indazol-6-yl)-5-ethyl-2-fluorophenol] | 0.316 to 1 nM | < 10 nM | C (C denotes a ratio between 10 and 50) | > 65% | < 0.1 nM | 0.1 to 1 nM |  |
| CCc1cc(O)c(F)cc1-c1ccc2c(-c3nc4c([nH]3)CCN(C[C@H]3COCCN3)C4)n[nH]c2c1 [Example 13, (S)-5-Ethyl-2-fluoro-4-(3-(5-(morpholin-3-ylmethyl)-4,5,6,7-tetrahydro-1H-imidazo[4,5-c]pyridin-2-yl)-1H-indazol-6-yl)phenol] | 0.316 to 1 nM | < 10 nM | A (A denotes a ratio >100) | 33 to 50% | < 0.1 nM | 0.1 to 1 nM | 82% |
| CCc1cc(O)c(F)cc1-c1ccc2c(-c3nc4c([nH]3)CCN(C3CN(C)C3)C4)n[nH]c2c1 [Example 1, 5-Ethyl-2-fluoro-4-(3-(5-(1-methylazetidin-3-yl)-4,5,6,7-tetrahydro-1H-imidazo[4,5-c]pyridin-2-yl)-1H-indazol-6-yl)phenol] |  | < 10 nM | B (B denotes a ratio between 50 and 100) | > 65% | < 0.1 nM |  | 98% |
| CCc1cc(O)c(F)cc1-c1ccc2c(-c3nc4c([nH]3)CCN(C3CCN(C)C3)C4)n[nH]c2c1 (stereo not shown) [Example 9-2] | 0.316 to 1 nM | < 10 nM |  |  | < 0.1 nM |  |  |
| CCc1cc(O)c(F)cc1-c1ccc2c(-c3nc4c([nH]3)CCN(CCN(C)C(C)CC)C4)n[nH]c2c1 (stereo not shown) [Example 10, 4-(3-(5-(2-(sec-butyl(methyl)amino)ethyl)-4,5,6,7-tetrahydro-1H-imidazo[4,5-c]pyridin-2-yl)-1H-indazol-6-yl)-5-ethyl-2-fluorophenol] | 0.1 to 1 nM | < 10 nM | B (B denotes a ratio between 50 and 100) | 33 to 50% | < 0.1 nM | 0.1 to 1 nM |  |
| CCc1cc(O)c(F)cc1-c1ccc2c(-c3nc4c([nH]3)CCN(CCN3CCC[C@@H]3C)C4)n[nH]c2c1 [Example 15, (S)-5-ethyl-2-fluoro-4-(3-(5-(2-(2-methylpyrrolidin-1-yl)ethyl)-4,5,6,7-tetrahydro-1H-imidazo[4,5-c]pyridin-2-yl)-1H-indazol-6-yl)phenol] | 0.316 to 1 nM | < 10 nM | A (A denotes a ratio >100) | 50 to 65% | < 0.1 nM | 0.1 to 1 nM |  |
| CCc1cc(O)c(F)cc1-c1ccc2c(-c3nc4c([nH]3)CCN(C3CN(C(C)C)C3)C4)n[nH]c2c1 [Example 3, 5-ethyl-2-fluoro-4-(3-(5-(1-isopropylazetidin-3-yl)-4,5,6,7-tetrahydro-1H-imidazo[4,5-c]pyridin-2-yl)-1H-indazol-6-yl)phenol] | 0.1 to 1 nM | < 10 nM | C (C denotes a ratio between 10 and 50) | > 65% | < 0.1 nM | 0.1 to 1 nM | 61% |
| CCc1cc(O)c(F)cc1-c1ccc2c(-c3nc4c([nH]3)CCN(C[C@@H]3COCCN3)C4)n[nH]c2c1 [Example 14, (R)-5-Ethyl-2-fluoro-4-(3-(5-(morpholin-3-ylmethyl)-4,5,6,7-tetrahydro-1H-imidazo[4,5-c]pyridin-2-yl)-1H-indazol-6-yl)phenol] |  | < 10 nM | A (A denotes a ratio >100) | > 65% | < 0.1 nM |  |  |
| CCc1cc(O)c(F)cc1-c1ccc2c(-c3nc4c([nH]3)CCN(C3CNC3)C4)n[nH]c2c1 [Example 2, 4-(3-(5-(azetidin-3-yl)-4,5,6,7-tetrahydro-1H-imidazo[4,5-c]pyridin-2-yl)-1H-indazol-6-yl)-5-ethyl-2-fluorophenol] | 0.1 to 1 nM | 10 to 39.8 nM | C (C denotes a ratio between 10 and 50) | 33 to 50% | < 0.1 nM |  | 93% |
| CCc1cc(O)c(F)cc1-c1ccc2c(-c3nc4c([nH]3)CCN(CCN(C)C)C4)n[nH]c2c1 [Example 7, 4-(3-(5-(2-(dimethylamino)ethyl)-4,5,6,7-tetrahydro-1H-imidazo[4,5-c]pyridin-2-yl)-1H-indazol-6-yl)-5-ethyl-2-fluorophenol] |  | < 10 nM | B (B denotes a ratio between 50 and 100) | > 65% | < 0.1 nM |  | 96% |
